The text below walks through data of patent US10906938B2, “Cell epitopes and combination of cell epitopes for use in the immunotherapy of myeloma and other cancers” (Immatics Biotechnologies GmbH, priority 2015, dated 2021).

The subject of this assay is U266 cells. Nature of the assay: HLA class I ligand presentation upon carfilzomib treatment on U266 cells (LC-MS/MS). In kind it is cell-based, human. Further details: key to modulation upon carfilzomib-treatment 24 #1 / modulation upon carfilzomib-treatment 24 #2 / modulation upon carfilzomib-treatment 24 #3 / modulation upon carfilzomib-treatment 48 #1 / modulation upon carfilzomib-treatment 48 #2 / modulation upon carfilzomib-treatment 48 #3: −1: significantly down-modulated; 0: not signifcant/not detected; 1: significantly up-modulated. To be noted: U266 cells, vs mock-treated controls; for modulation upon carfilzomib-treatment 24 #1 / modulation upon carfilzomib-treatment 24 #2 / modulation upon carfilzomib-treatment 24 #3: 24 h after carfilzomib treatment (100 nM, 1 h); for modulation upon carfilzomib-treatment 24 #1 / modulation upon carfilzomib-treatment 48 #1: biological replicate #1; for modulation upon carfilzomib-treatment 24 #2 / modulation upon carfilzomib-treatment 48 #2: biological replicate #2; for modulation upon carfilzomib-treatment 24 #3 / modulation upon carfilzomib-treatment 48 #3: biological replicate #3; for modulation upon carfilzomib-treatment 48 #1 / modulation upon carfilzomib-treatment 48 #2 / modulation upon carfilzomib-treatment 48 #3: 48 h after carfilzomib treatment (100 nM, 1 h). How it is done:
HLA class I and II molecules were isolated using standard immunoaffinity purification as described using the pan-HLA class I specific mAb W6/32, the pan-HLA class II specific mAb T039 and the HLA-DR specific mAB L243 (produced in house).
HLA ligand extracts were analyzed in 5 technical replicates as described previously. In brief, peptide samples were separated by nanoflow HPLC (RSLCnano, ThermoFisher) using a 50 μm×25 cm PepMap RSLC column (Thermo Fisher) and a gradient ranging from 2.4 to 32.0% acetonitrile over the course of 90 min. Eluting peptides were analyzed in an online coupled LTQ Orbitrap XL mass spectrometer (Thermo Fisher) using a top 5 CID (collision induced dissociation) fragmentation method.
Data processing was performed as described previously. In brief, the Mascot search engine (Mascot 2.2.04; Matrix Science, London, UK) was implemented to search the human proteome as comprised in the Swiss-Prot database (20,279 reviewed protein sequences, September 2013) without enzymatic restriction. Potential mutated HLA ligands were searched implementing a database containing the human proteome concatenated with proteins containing single amino acid variants (SAVs) listed in the COSMIC database (http://cancer.sanger.ac.uk/cosmic/). Only recurrent SAVs described in 2 or more samples of hematological origin were included. Oxidized methionine was allowed as a dynamic modification. The false discovery rate was estimated using the Percolator algorithm and set to 5%. Peptide lengths were limited to 8-12 amino acids for HLA class I and 12-25 amino acids for HLA class II. Protein inference was disabled, allowing for multiple protein annotations of peptides. HLA annotation was performed using SYFPEITHI [46] or an extended in-house database. Experimental validation of peptide identifications and HLA annotations was performed by mass spectrometric and functional characterization of synthetic peptides for a subset of peptides.
The inventors quantitatively assessed HLA class I ligand presentation during proteasome inhibitor therapy. Observed was a considerable plasticity of the HLA class I ligandome after treatment with carfilzomib with 17.9±1.1% of MM.1S ligands and 11.2±0.7% of U266 ligands (mean of three biological replicates ±s.d.) showing significant modulation (fold-change ≥4, Po0.01 after Benjamini-Hochberg correction) at t24 h compared with mock-treated controls. Briefly, Cultured MCLs (MM.1S and U266) and primary myeloma samples were incubated with carfilzomib (100 nM, Kyprolis®, available, e.g., from Onyx Pharmaceuticals, Inc.) as an example for a proteasome inhibitor for a 1-h period, followed by three washes in PBS (Gibco) and recultured for additional 24 or 48 h. Controls were incubated with vehicle control (glucose 5%) for 1 h, followed by identical washing and incubation for 24 or 48 h. Experiments were conducted in three biological replicates where indicated.

Regarding KTEVHIRPK, the “modulation upon carfilzomib-treatment 24 #1” value turned out to be 0, the “modulation upon carfilzomib-treatment 24 #2” value amounted to 0, the “modulation upon carfilzomib-treatment 24 #3” value came out at 0 and the “modulation upon carfilzomib-treatment 48 #1” value was 0. The “modulation upon carfilzomib-treatment 48 #2” value is 0 and the “modulation upon carfilzomib-treatment 48 #3” value turned out to be 0.

Turning to RVFPYSVFY, the “modulation upon carfilzomib-treatment 24 #1” value is on record as −1, the “modulation upon carfilzomib-treatment 24 #2” value was 0, the “modulation upon carfilzomib-treatment 24 #3” value came out at 0 and the “modulation upon carfilzomib-treatment 48 #1” value is listed as −1. Moreover, the “modulation upon carfilzomib-treatment 48 #2” value is given as −1 and the “modulation upon carfilzomib-treatment 48 #3” value was −1.

On to RVAKTNSLR, for which the “modulation upon carfilzomib-treatment 24 #1” value was determined as 0, the “modulation upon carfilzomib-treatment 24 #2” value is recorded as 0, the “modulation upon carfilzomib-treatment 24 #3” value is on record as 0 and the “modulation upon carfilzomib-treatment 48 #1” value is 0. In addition, the “modulation upon carfilzomib-treatment 48 #2” value was 0 and the “modulation upon carfilzomib-treatment 48 #3” value was determined as 0.

As for SPRLSLLYL, the “modulation upon carfilzomib-treatment 24 #1” value is listed as 0, the “modulation upon carfilzomib-treatment 24 #2” value is 0, the “modulation upon carfilzomib-treatment 24 #3” value came out at 0 and the “modulation upon carfilzomib-treatment 48 #1” value is on record as 0. In addition, the “modulation upon carfilzomib-treatment 48 #2” value stood at 0 and the “modulation upon carfilzomib-treatment 48 #3” value was 0.

For the sequence PELGPLPAL, the “modulation upon carfilzomib-treatment 24 #1” value was determined as 0, the “modulation upon carfilzomib-treatment 24 #2” value came out at 0, the “modulation upon carfilzomib-treatment 24 #3” value amounted to 0 and the “modulation upon carfilzomib-treatment 48 #1” value is 0. In addition, the “modulation upon carfilzomib-treatment 48 #2” value was found to be 0 and the “modulation upon carfilzomib-treatment 48 #3” value is 0.

On to SPALKRLDL, for which the “modulation upon carfilzomib-treatment 24 #1” value is recorded as 0, the “modulation upon carfilzomib-treatment 24 #2” value is reported as 0, the “modulation upon carfilzomib-treatment 24 #3” value was determined as 0 and the “modulation upon carfilzomib-treatment 48 #1” value is 0. The “modulation upon carfilzomib-treatment 48 #2” value worked out at 0 and the “modulation upon carfilzomib-treatment 48 #3” value is on record as 0.

Consider RPGPPTRPL, for which the “modulation upon carfilzomib-treatment 24 #1” value is reported as 0, the “modulation upon carfilzomib-treatment 24 #2” value came out at 0, the “modulation upon carfilzomib-treatment 24 #3” value is given as 0 and the “modulation upon carfilzomib-treatment 48 #1” value was found to be 0. The “modulation upon carfilzomib-treatment 48 #2” value was determined as 0 and the “modulation upon carfilzomib-treatment 48 #3” value came out at 0.

As for KAMEAASSL, the “modulation upon carfilzomib-treatment 24 #1” value was −1, the “modulation upon carfilzomib-treatment 24 #2” value is listed as −1, the “modulation upon carfilzomib-treatment 24 #3” value is given as −1 and the “modulation upon carfilzomib-treatment 48 #1” value is given as −1. Besides, the “modulation upon carfilzomib-treatment 48 #2” value is given as −1 and the “modulation upon carfilzomib-treatment 48 #3” value is reported as −1.

Regarding APRHPSTNSLL, the “modulation upon carfilzomib-treatment 24 #1” value is given as 0, the “modulation upon carfilzomib-treatment 24 #2” value is on record as 1, the “modulation upon carfilzomib-treatment 24 #3” value was determined as 0 and the “modulation upon carfilzomib-treatment 48 #1” value is 1. Besides, the “modulation upon carfilzomib-treatment 48 #2” value was determined as 1 and the “modulation upon carfilzomib-treatment 48 #3” value was 0.

As to SPRQALTDF, the “modulation upon carfilzomib-treatment 24 #1” value came to 0, the “modulation upon carfilzomib-treatment 24 #2” value worked out at 0, the “modulation upon carfilzomib-treatment 24 #3” value stood at 0 and the “modulation upon carfilzomib-treatment 48 #1” value is listed as 0. Moreover, the “modulation upon carfilzomib-treatment 48 #2” value stood at 0 and the “modulation upon carfilzomib-treatment 48 #3” value was 0.

Take KPKDPLKISL: the “modulation upon carfilzomib-treatment 24 #1” value is recorded as −1, the “modulation upon carfilzomib-treatment 24 #2” value is given as −1, the “modulation upon carfilzomib-treatment 24 #3” value was −1 and the “modulation upon carfilzomib-treatment 48 #1” value worked out at 0. In addition, the “modulation upon carfilzomib-treatment 48 #2” value is recorded as −1 and the “modulation upon carfilzomib-treatment 48 #3” value was −1.

Consider KLPLPLPPRL, for which the “modulation upon carfilzomib-treatment 24 #1” value is given as 0, the “modulation upon carfilzomib-treatment 24 #2” value came to 0, the “modulation upon carfilzomib-treatment 24 #3” value was found to be 0 and the “modulation upon carfilzomib-treatment 48 #1” value stood at 0. The “modulation upon carfilzomib-treatment 48 #2” value was 0 and the “modulation upon carfilzomib-treatment 48 #3” value is listed as 0.

In the case of ILWETVPSM, the “modulation upon carfilzomib-treatment 24 #1” value was 0, the “modulation upon carfilzomib-treatment 24 #2” value came to 0, the “modulation upon carfilzomib-treatment 24 #3” value was 0 and the “modulation upon carfilzomib-treatment 48 #1” value was determined as 0. Besides, the “modulation upon carfilzomib-treatment 48 #2” value is 0 and the “modulation upon carfilzomib-treatment 48 #3” value amounted to 0.

Regarding GEVAPSMFL, the “modulation upon carfilzomib-treatment 24 #1” value was determined as 0, the “modulation upon carfilzomib-treatment 24 #2” value is given as 0, the “modulation upon carfilzomib-treatment 24 #3” value is reported as 0 and the “modulation upon carfilzomib-treatment 48 #1” value is on record as 0. The “modulation upon carfilzomib-treatment 48 #2” value was determined as 0 and the “modulation upon carfilzomib-treatment 48 #3” value amounted to 0.

As to SESLPVRTL, the “modulation upon carfilzomib-treatment 24 #1” value is 0, the “modulation upon carfilzomib-treatment 24 #2” value is reported as 0, the “modulation upon carfilzomib-treatment 24 #3” value came out at 0 and the “modulation upon carfilzomib-treatment 48 #1” value was 0. Besides, the “modulation upon carfilzomib-treatment 48 #2” value came out at 0 and the “modulation upon carfilzomib-treatment 48 #3” value came out at 0.

In the case of KPSTKALVL, the “modulation upon carfilzomib-treatment 24 #1” value is on record as 0, the “modulation upon carfilzomib-treatment 24 #2” value is given as 0, the “modulation upon carfilzomib-treatment 24 #3” value worked out at 0 and the “modulation upon carfilzomib-treatment 48 #1” value turned out to be 0. In addition, the “modulation upon carfilzomib-treatment 48 #2” value amounted to 0 and the “modulation upon carfilzomib-treatment 48 #3” value was found to be 0.

LPPPPHVPL: the “modulation upon carfilzomib-treatment 24 #1” value came out at 0, the “modulation upon carfilzomib-treatment 24 #2” value came out at 0, the “modulation upon carfilzomib-treatment 24 #3” value is 0 and the “modulation upon carfilzomib-treatment 48 #1” value stood at 0. Further, the “modulation upon carfilzomib-treatment 48 #2” value amounted to 0 and the “modulation upon carfilzomib-treatment 48 #3” value was 0.

On to GETAFAFHL, for which the “modulation upon carfilzomib-treatment 24 #1” value is on record as 0, the “modulation upon carfilzomib-treatment 24 #2” value was found to be 0, the “modulation upon carfilzomib-treatment 24 #3” value was found to be 0 and the “modulation upon carfilzomib-treatment 48 #1” value was 0. Also, the “modulation upon carfilzomib-treatment 48 #2” value was found to be 0 and the “modulation upon carfilzomib-treatment 48 #3” value is reported as 0.

For the sequence APFQGDQRSL, the “modulation upon carfilzomib-treatment 24 #1” value was found to be 0, the “modulation upon carfilzomib-treatment 24 #2” value turned out to be 1, the “modulation upon carfilzomib-treatment 24 #3” value turned out to be 1 and the “modulation upon carfilzomib-treatment 48 #1” value worked out at 0. For the same sequence, the “modulation upon carfilzomib-treatment 48 #2” value came out at 1 and the “modulation upon carfilzomib-treatment 48 #3” value was determined as 0.
